Assay results reported in US9028856B2, “Synergistic pesticide compositions” (priority 2008, dated 2015).

Columns and labels:
[1] = assay type: physicochemical; conditions: classified from Log P
Text: As used herein, a “partition coefficient” is defined as the ratio of concentrations of an un-ionized compound between solutions of water and octanol. To measure the partition coefficient of ionizable solutes, the pH of the aqueous phase is adjusted such that the predominant form of the compound is un-ionized. The logarithm of the ratio of the concentrations of the un-ionized solute in the solvents is referred to herein as log P or log K ow.
As noted herein, the octanol-water partition coefficient may be used to identify the cuticular penetration of a particular active ingredient. One factor in the relative speed through which any insecticide acts is the insecticide's ability to cross the insect cuticle. A determining factor for cuticle penetration is Log K ow, also known as Log P. Log K ow (Log P) is the octanol-water partition coefficient for a neutral molecule. Log P is used hereinfurther, but, as noted above, the term is synonymous with Log K ow. As previously noted, the cuticular penetration of any particular active ingredient as against a plant cuticle is not indicative of that same active ingredient's ability to penetrate an insect cuticle.
The cuticular penetration of a compound is classified as “INTERMEDIATE” when the Log P value is between about 2.0 and about 4.0.

[2] = octanol-water partition coefficient (Log K ow), Table 1; cited from earlier work
[3] = test system: tropical house mosquito Culex quinquefasciatus (adults, 3 days old); test: Efficacy of formulations on surfaces (glazed/unglazed tiles, plywood), ten 3 day old mosquitoes, 3 min exposure; assay type: in vivo; conditions: 0.002% = 1 mg DTM/m^2 on glazed tiles; EC formulation; 3 minutes exposure
Protocol: The ingredients were diluted in acetone to give a concentration which corresponds to the desired quantity of a.i./m^2. A 1 ml quantity of the solution was applied by pipette onto the 15 cm×15 cm surfaces without treating the outer edge of 1 cm.
Ten 3 day old Culex quinquefasciatus mosquitoes were exposed to each treatment for 3 minutes under a perforated petri dish, and then a clean untreated white paper index card was moved between treated surface and petri dish. A water-soaked cotton pad was applied immediately after.
Each test consisted of three replicates (three batches of ten mosquitoes were exposed for three minutes to the same surface, each one hour later), of which the mean values are calculated.
The test insects were Culex quinquefasciatus (adults, 3 days old). The compositions were evaluated for their ability to provide effective knock down after 3, 9, 15, and 30 minutes, 1, 2, 3, 4 and 24 hours (mortality). The experiments were performed in triplicate on glazed tile, but not repeated on wood.
Test Insects are Culex quinquefasciatus (adults, 3 days old). The Application provides the technical compounds were dissolved in acetone and applied as 1 ml solutions onto glazed tiles (15 cm×15 cm). An evaluation is provided at knock down after 3, 9, 15, and 30 minutes, 1, 2, 3, 4 and 24 hours (mortality). There are 3 replicates.
Test Insects: Culex quinquefasciatus (adults, 3 days old)
Application: The technical compounds were dissolved in acetone and applied as 1 ml solutions onto glazed tiles (15 cm×15 cm).
Evaluation: Knock down after 3, 9, 15, and 30 minutes, 1, 2, 3, 4 and 24 hours (mortality) […]
Application: The active ingredients were applied as 1 ml acetone solutions onto glazed tiles (15 cm×15 cm) […]
For the mosquitoes, the USDA Petri Dish Method is used. Ten 3 day old Culex quinquefasciatus mosquitoes are exposed to each treatment for 3 minutes under a perforated petri dish and then a clean untreated white paper index card is moved between treated surface and petri dish. A water-soaked cotton pad is applied immediately after. […]

[4] = test system: Musca domestica, susceptible strain WHO(N); test: Efficacy of formulations on surfaces (glazed/unglazed tiles), house flies, continuous exposure; assay type: in vivo; conditions: Table 114; 0.002% = 1 mg DTM/m^2 on glazed tiles; EC formulation; continuous exposure
Protocol: A flat fan nozzle (type SS 8003-E) in a spray cabin was moved automatically over a defined area where the solutions were sprayed very evenly onto the surfaces. The formulation was mixed with water to give a concentration which corresponded to the desired quantity of a.i./m^2. A defined quantity of this solution was sprayed onto the area (nominal 350 liter/ha=0.77 ml per surface).
(§1) All surfaces were provided with talcum-coated glass rings (diameter 9.5 cm, height 5.5 cm) one day later.
The test insects were anesthetized with CO2, 20 individuals were placed onto the treated surfaces and the glass ring was covered with wire gauze ring.
Knock down was determined after 15 and 30′, 1, 2, 4 and 6 hours, mortality after 1 day exposure.
(§2) Each test consisted of at least one replicate and any additional replicates are noted.
(§3) Test Insects: House flies (Musca domestica) of both sexes, susceptible strain WHO(N) and resistant strain Reichswald
(§4) Evaluation: Mortality was evaluated cumulatively at different times. […]
(§5) Test Insects: Culex quinquefasciatus (adults) (3 minutes exposure time according to USDA Petri Dish Method), Musca domestica (adults), susceptible and resistant strain, Blattella germanica (males), Cimex lectularius (adults) (all: continuous exposure time)
(§6) Application: The EC formulation (diluted with water 1:9) were applied as 0.85 ml solutions onto glazed tiles (15 cm×15 cm)
(§7) Evaluation: Knock down after 15, and 30 minutes, 1, 2, 3, 4, 6 and 24 hours (mortality)
(§8) Test Insects: Culex quinquefasciatus (adults, susceptible) (3 minutes exposure time according to USDA Petri Dish Method), Musca domestica (adults, susceptible and resistant), Blattella germanica (males, susceptible) (both: continuous exposure time)
(§9) Formulations: Insecticide with or without 10% Compound A (as EC), to be diluted with water (1 part formulation+9 parts water)
Evaluation: Knock down after 3, 9 (mosquitoes only), 15, and 30 minutes, 1, 2, 3, 4 and 24 hours (mortality) […]

[5] = test system: Musca domestica, resistant strain Reichswald; test: as above; assay type: in vivo; conditions: Table 115; 0.002% = 1 mg DTM/m^2 on glazed tiles; EC formulation; continuous exposure
Protocol: as §1
(§10) The test insects were anesthetized with CO2, 20 individuals were placed onto the treated surfaces and the glass ring was covered with wire gauze ring. […]
as §2, §3, §4, §5, §6

[6] = test system: Blattella germanica (males, susceptible); test: Efficacy of EC formulations on glazed/unglazed tiles, continuous exposure; assay type: in vivo; conditions: 0.002% = 1 mg DTM/m^2 on glazed tiles, EC formulation
Protocol: as §1, §10
Each test consisted of at least one replicate and any additional replicates are noted. […]
as §8, §9
Application: 1 ml of the diluted formulations was applied by pipette onto glazed tiles (15×15 cm)
(§11) Evaluation: Knock down after 3, 9 (mosquitoes only), 15, and 30 minutes, 1, 2, 3, 4 and 24 hours (mortality)

[7] = test system: Cimex lectularius (adults); test: Efficacy on glazed tiles (acetone solutions or EC formulations), continuous exposure; assay type: in vivo; conditions: on tiles, insecticide alone (imidacloprid 50 mg/m^2, Bendiocarb 50 mg/m^2, Ethiprole 10 mg/m^2, DTM 1 mg/m^2), no Compound A
Protocol: as §5, §6, §7
Test Insects: Culex quinquefasciatus (adults) (3 minutes exposure time according to USDA Petri Dish Method), Cimex lectularius (adults), Acheta domesticus (middle nymphs) (both: continuous exposure time)
Application: The active ingredients were applied as 1 ml acetone solutions onto glazed tiles (15 cm×15 cm)
as §11
Test Insects: Culex quinquefasciatus (adults) (3 minutes exposure time according to USDA Petri Dish Method), Cimex lectularius (adults), (continuous exposure time)
Test Insects: Cimex lectularius, Culex quinquefasciatus, Musca domestica (all adults, susceptible strains)
Application: The active ingredients were applied as 1 ml acetone solutions onto glazed tiles (15 cm×15 cm), continuous exposure time

## N#Cc1ccc(CC(=NNC(=O)Nc2ccc(OC(F)(F)F)cc2)c2cccc(C(F)(F)F)c2)cc1 (mixture of isomers) [metaflumizone]
[1]
  Likelihood of Direct Insect Cuticular Penetration: Fast (classified as “FAST” when it has a Log P value of about >4.0)
[2]
  Log P: 5.1

## Cc1c(COC(=O)[C@@H]2[C@H](/C=C(\Cl)C(F)(F)F)C2(C)C)cccc1-c1ccccc1 (racemic) [bifenthrin]
[1]
  Likelihood of Direct Insect Cuticular Penetration: Fast (classified as “FAST” when it has a Log P value of about >4.0)
[2]
  Log P: 6.0

## COC(C)(C)CCC[C@H](C)C/C=C/C(C)=C/C(=O)OC(C)C (racemic) [methoprene]
[1]
  Likelihood of Direct Insect Cuticular Penetration: Fast (classified as “FAST” when it has a Log P value of about >4.0)
[2]
  Log P: >6.0

## CC1(C)[C@H](C(=O)O[C@H](C#N)c2cccc(Oc3ccccc3)c2)[C@@H]1C=C(Br)Br [DTM]
[3]
  % KD and Mortality 15′: 0%
  % KD and Mortality 30′: 0%
  % KD and Mortality 1 h: 10%
  % KD and Mortality 2 h: 10%
  % KD and Mortality 3 h: 10%
  % KD and Mortality 4 h: 10%
  % KD and Mortality 6 h: 20%
  % KD and Mortality 24 h: 80%
[4]
  % KD and Mortality 15′: 10%
  % KD and Mortality 30′: 85%
  % KD and Mortality 1 h: 95%
  % KD and Mortality 2 h: 100%
  % KD and Mortality 3 h: 100%
  % KD and Mortality 4 h: 100%
  % KD and Mortality 6 h: 100%
  % KD and Mortality 24 h: 100%
[5]
  % KD and Mortality 15′: 0%
  % KD and Mortality 30′: 0%
  % KD and Mortality 1 h: 0%
  % KD and Mortality 2 h: 0%
  % KD and Mortality 3 h: 0%
  % KD and Mortality 4 h: 0%
  % KD and Mortality 6 h: 0%
  % KD and Mortality 24 h: 5%
[6]
  % KD and Mortality 15′: 0%
  % KD and Mortality 30′: 40%
  % KD and Mortality 1 h: 100%
  % KD and Mortality 2 h: 100%
  % KD and Mortality 3 h: 100%
  % KD and Mortality 4 h: 100%
  % KD and Mortality 6 h: 100%
  % KD and Mortality 24 h: 100%
[7]; 15′
  % KD and Mortality: 0%
[7]; 30′
  % KD and Mortality: 0%
[7]; 1 h
  % KD and Mortality: 0%
[7]; 2 h
  % KD and Mortality: 10%
[7]; 3 h
  % KD and Mortality: 80%
[7]; 4 h
  % KD and Mortality: 100%
[7]; 6 h
  % KD and Mortality: 100%
[7]; 24 h
  % KD and Mortality: 100%

## C/C(=N\C#N)N(C)Cc1ccc(Cl)nc1 [acetamiprid]
[1]
  Likelihood of Direct Insect Cuticular Penetration: Slow (classified as “SLOW” when the compound has a Log P value of about <2.0)
[2]
  Log P: 0.8

## CNC(=O)Oc1cccc2ccccc12 [carbaryl]
[1]
  Likelihood of Direct Insect Cuticular Penetration: Intermediate (classified as “INTERMEDIATE” when the Log P value is between about 2.0 and about 4.0)
[2]
  Log P: 2.8

## CN/C(=N\[N+](=O)[O-])NCc1cnc(Cl)s1 [clothianidin]
[1]
  Likelihood of Direct Insect Cuticular Penetration: Slow (classified as “SLOW” when the compound has a Log P value of about <2.0)
[2]
  Log P: 0.7

## CCOC(=O)NCCOc1ccc(Oc2ccccc2)cc1 [fenoxycarb]
[1]
  Likelihood of Direct Insect Cuticular Penetration: Fast (classified as “FAST” when it has a Log P value of about >4.0)
[2]
  Log P: 4.1

## O=C(NC(=O)c1c(F)cccc1F)Nc1cc(Cl)c(OC(F)(F)C(F)F)c(Cl)c1 [hexaflumuron]
[1]
  Likelihood of Direct Insect Cuticular Penetration: Fast (classified as “FAST” when it has a Log P value of about >4.0)
[2]
  Log P: 5.6

## CC1(C)CNC(=NN=C(/C=C/c2ccc(C(F)(F)F)cc2)/C=C/c2ccc(C(F)(F)F)cc2)NC1 [hydramethylnon]
[1]
  Likelihood of Direct Insect Cuticular Penetration: Intermediate (classified as “INTERMEDIATE” when the Log P value is between about 2.0 and about 4.0)
[2]
  Log P: 2.3

## COC(=O)N(C(=O)N1CO[C@@]2(C(=O)OC)Cc3cc(Cl)ccc3C2=N1)c1ccc(OC(F)(F)F)cc1 [indoxacarb]
[1]
  Likelihood of Direct Insect Cuticular Penetration: Fast (classified as “FAST” when it has a Log P value of about >4.0)
[2]
  Log P: 4.6
